According to patent US8129371B2, “Thienopyrimidine and pyrazolopyrimidine compounds and their use as mTOR kinase and PI3 kinase inhibitors” (Wyeth LLC, priority 2007, dated 2012):
Like-named read-outs stand apart in the source and are kept apart here.

Columns and labels:
[1] = tested on: prostate line LNCap; experiment: In vitro cell culture growth assay (MTS), LNCap; format: cell-based; details: Homo sapiens, LNCaP, 72 h, LNCap cells, three days after drug treatment
How it was run: (§1)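 Following a one-day attachment period, cells received inhibitors for 3 days. MTS metabolism by viable cells was quantified at 490 nm absorbance and converted to percent of same-plate vehicle control growth.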

[2] = target: T1, PI3K (Homo sapiens, UniProt P48736); experiment: Fluorescence polarization assay for PI3K; format: biochemical; details: read-out: PI3 Kinase γ IC50
T1 construct: PI3 Kinase γ IC50; other: PI3 Kinase γ; other: PI3 Kinase γ isoform, fluorescence polarization
How it was run: (§2)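 PI3K was preincubated with compound (final DMSO 1%), and the reaction was started with PIP2/ATP substrate and run 30–60 min. It was stopped with a detector mix giving 10 nM red probe and 70 nM GST-GRP.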

[3] = target: T2, PI3K (Homo sapiens, UniProt P42336); experiment: Fluorescence polarization assay for PI3K; format: biochemical; details: read-out: PI3 Kinase α IC50
T2 construct: PI3 Kinase α IC50; other: PI3 Kinase α; other: PI3 Kinase α isoform, fluorescence polarization
How it was run: as §2

[4] = tested on: breast line MDA468; experiment: In vitro cell culture growth assay (MTS), MDA468; format: cell-based; details: Homo sapiens, 72 h, MDA468 cells, three days after drug treatment
How it was run: as §1

[5] = target: T3, Human mTOR (FLAG-TOR) (Homo sapiens, UniProt P42345); experiment: Human mTOR kinase assay with purified enzyme, DELFIA format; format: biochemical
T3 construct: FLAG
How it was run: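 Purified FLAG-mTOR in HEPES pH 7.4 buffer with 10 mM MnCl2 was preincubated with inhibitor and reacted 2 h at room temperature with His6-S6K substrate, then stopped with EDTA/EGTA. Phospho-T389 S6K detected by DELFIA with Eu-labelled antibody (40 ng/mL) after plate capture; inhibition computed from signal.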

[6] = PI3 Kinase γ isoform, fluorescence polarization
[7] = PI3 Kinase α isoform, fluorescence polarization
[8] = purified human mTOR enzyme, DELFIA format

T1 sequence (P48736 whole entry, canonical isoform): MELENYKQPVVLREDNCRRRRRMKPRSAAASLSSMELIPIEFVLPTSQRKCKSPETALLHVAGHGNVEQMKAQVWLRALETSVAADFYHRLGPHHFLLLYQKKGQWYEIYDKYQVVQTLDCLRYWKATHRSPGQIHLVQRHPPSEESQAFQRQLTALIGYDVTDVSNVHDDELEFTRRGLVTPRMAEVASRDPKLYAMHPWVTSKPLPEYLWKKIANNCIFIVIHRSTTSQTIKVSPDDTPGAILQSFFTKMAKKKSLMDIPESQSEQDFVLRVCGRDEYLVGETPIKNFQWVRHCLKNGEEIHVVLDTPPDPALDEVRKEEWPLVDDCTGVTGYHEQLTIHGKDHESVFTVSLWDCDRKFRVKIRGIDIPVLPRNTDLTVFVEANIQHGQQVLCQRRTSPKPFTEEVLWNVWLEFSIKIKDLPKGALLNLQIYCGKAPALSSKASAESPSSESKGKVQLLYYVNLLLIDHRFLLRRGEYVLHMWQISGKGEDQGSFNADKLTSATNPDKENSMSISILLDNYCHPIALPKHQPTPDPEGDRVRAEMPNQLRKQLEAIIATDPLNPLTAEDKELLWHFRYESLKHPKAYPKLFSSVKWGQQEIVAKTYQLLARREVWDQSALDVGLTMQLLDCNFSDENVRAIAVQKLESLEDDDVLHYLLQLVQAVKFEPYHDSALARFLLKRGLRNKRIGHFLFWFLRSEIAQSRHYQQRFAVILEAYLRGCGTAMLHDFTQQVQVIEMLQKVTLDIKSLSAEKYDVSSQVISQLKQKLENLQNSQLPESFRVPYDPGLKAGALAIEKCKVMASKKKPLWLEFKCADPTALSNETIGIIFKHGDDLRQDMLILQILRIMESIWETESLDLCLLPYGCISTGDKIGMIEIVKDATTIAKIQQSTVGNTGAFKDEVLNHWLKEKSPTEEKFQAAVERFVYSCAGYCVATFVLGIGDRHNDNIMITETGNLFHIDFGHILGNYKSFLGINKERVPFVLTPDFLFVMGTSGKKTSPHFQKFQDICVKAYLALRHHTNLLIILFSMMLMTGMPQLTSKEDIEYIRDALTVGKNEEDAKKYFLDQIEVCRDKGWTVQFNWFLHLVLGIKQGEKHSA
T2 sequence (P42336 whole entry, canonical isoform): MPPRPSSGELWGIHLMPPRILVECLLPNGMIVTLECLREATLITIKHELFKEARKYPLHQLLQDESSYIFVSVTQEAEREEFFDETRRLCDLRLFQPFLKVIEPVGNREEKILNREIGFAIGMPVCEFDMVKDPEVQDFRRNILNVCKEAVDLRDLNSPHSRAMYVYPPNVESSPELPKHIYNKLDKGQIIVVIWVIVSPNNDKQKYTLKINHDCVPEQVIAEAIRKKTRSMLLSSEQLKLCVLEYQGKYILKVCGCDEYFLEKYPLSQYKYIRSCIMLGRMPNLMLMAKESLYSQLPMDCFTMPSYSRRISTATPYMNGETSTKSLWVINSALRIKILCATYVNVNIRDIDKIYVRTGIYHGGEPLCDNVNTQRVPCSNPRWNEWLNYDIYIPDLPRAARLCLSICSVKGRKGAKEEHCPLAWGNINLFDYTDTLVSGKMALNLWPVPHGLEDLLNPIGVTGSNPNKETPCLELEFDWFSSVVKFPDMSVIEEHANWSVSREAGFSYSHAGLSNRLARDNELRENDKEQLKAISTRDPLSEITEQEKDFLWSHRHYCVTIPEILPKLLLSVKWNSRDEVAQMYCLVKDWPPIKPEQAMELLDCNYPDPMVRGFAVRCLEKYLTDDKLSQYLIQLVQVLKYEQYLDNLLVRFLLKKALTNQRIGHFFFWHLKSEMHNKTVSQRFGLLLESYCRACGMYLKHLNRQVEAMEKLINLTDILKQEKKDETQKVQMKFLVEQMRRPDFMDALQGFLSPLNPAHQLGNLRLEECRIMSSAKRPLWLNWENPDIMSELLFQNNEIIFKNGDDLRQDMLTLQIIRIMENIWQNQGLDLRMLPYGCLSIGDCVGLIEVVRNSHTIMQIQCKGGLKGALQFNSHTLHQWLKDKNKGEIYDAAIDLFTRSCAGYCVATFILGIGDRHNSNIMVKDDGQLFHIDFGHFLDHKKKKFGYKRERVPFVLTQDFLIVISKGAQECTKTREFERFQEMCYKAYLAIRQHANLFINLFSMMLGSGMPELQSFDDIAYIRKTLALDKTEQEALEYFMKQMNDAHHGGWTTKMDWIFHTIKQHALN

SMILES	IC50 [1]	IC50 [2, 6]	IC50 [3, 7]	IC50 [5, 8]	IC50 ([2]; PI3 Kinase γ)	IC50 ([3]; PI3 Kinase α)	IC50 [5]	IC50 [4]
O=C(Nc1ccc(-c2nc(N3CC4CCC(C3)O4)c3cnn(CC(F)(F)F)c3n2)cc1)Nc1ccc(N2CCOCC2)nc1 [Example 252, 1-(6-morpholin-4-ylpyridin-3-yl)-3-{4-[4-(8-oxa-3-azabicyclo[3.2.1]oct-3-yl)-1-(2,2,2-trifluoroethyl)-1H-pyrazolo[3,4-d]pyrimidin-6-yl]phenyl}urea]	1 nM	–	–	–	> 10000 nM	9500 nM	0.465 nM	8 nM
CN(C)CCn1ncc2c(N3CC4CCC(C3)O4)nc(-c3ccc(NC(=O)Nc4ccc(CO)cc4)cc3)nc21 [Example 163, 1-(4-{1-[2-(dimethylamino)ethyl]-4-(8-oxa-3-azabicyclo[3.2.1]oct-3-yl)-1H-pyrazolo[3,4-d]pyrimidin-6-yl}phenyl)-3-[4-(hydroxymethyl)phenyl]urea]	28 nM	–	–	–	1290 nM	43 nM	0.88 nM	90 nM
COCC(COC)n1ncc2c(N3CC4CCC(C3)O4)nc(-c3ccc(NC(=O)OCCO)cc3)nc21 [Example 323, 2-hydroxyethyl (4-{1-[2-methoxy-1-(methoxymethyl)ethyl]-4-(8-oxa-3-azabicyclo[3.2.1]oct-3-yl)-1H-pyrazolo[3,4-d]pyrimidin-6-yl}phenyl)carbamate]	470 nM	> 10000 nM	6620 nM	16.5 nM	–	–	–	2000 nM
CCn1ncc2c(N3CC4CCC(C3)O4)nc(-c3ccc(NC(=O)NCCN4CCN(C)CC4)cc3)nc21 [Example 178, 1-{4-[1-ethyl-4-(8-oxa-3-azabicyclo[3.2.1]oct-3-yl)-1H-pyrazolo[3,4-d]pyrimidin-6-yl]phenyl}-3-[2-(4-methylpiperazin-1-yl)ethyl]urea]	1900 nM	–	–	–	> 10000 nM	959 nM	87 nM	5800 nM
CN1CCN(c2ccc(NC(=O)Nc3ccc(-c4nc(N5CC6CCC(C5)O6)c5cnn(CC(F)(F)F)c5n4)cc3)cn2)CC1 [Example 262, 1-[6-(4-methylpiperazin-1-yl)pyridin-3-yl]-3-{4-[4-(8-oxa-3-azabicyclo[3.2.1]oct-3-yl)-1-(2,2,2-trifluoroethyl)-1H-pyrazolo[3,4-d]pyrimidin-6-yl]phenyl}urea]	1 nM	–	–	–	1360 nM	191 nM	0.515 nM	5 nM

More lines, main results first:

IC50 [1]	IC50 [2, 6]	IC50 [3, 7]	IC50 [5, 8]	IC50 ([2]; PI3 Kinase γ)	IC50 ([3]; PI3 Kinase α)	IC50 [5]	SMILES	IC50 [4]
1 nM	5650 nM	1150 nM	0.52 nM	–	–	–	CO[C@H]1CC[C@@H](n2ncc3c(N4CC5CCC(C4)O5)nc(-c4ccc(NC(=O)NC5CC5)cc4)nc32)CC1 (relative stereo) [Example 398, 1-cyclopropyl-3-{4-[1-(cis-4-methoxycyclohexyl)-4-(8-oxa-3-azabicyclo[3.2.1]oct-3-yl)-1H-pyrazolo[3,4-d]pyrimidin-6-yl]phenyl}urea]	20 nM
270 nM	–	–	–	3130 nM	270 nM	2.25 nM	CCn1ncc2c(N3CC4CCC(C3)O4)nc(-c3ccc(NC(=O)NCCN)cc3)nc21 [Example 173, 1-(2-aminoethyl)-3-{4-[1-ethyl-4-(8-oxa-3-azabicyclo[3.2.1]oct-3-yl)-1H-pyrazolo[3,4-d]pyrimidin-6-yl]phenyl}urea]	650 nM
< 1 nM	–	–	–	2490 nM	54 nM	0.095 nM	COC(=O)N1CCC(n2ncc3c(N4CC5CCC(C4)O5)nc(-c4ccc(NC(=O)Nc5ccc(CCO)cc5)cc4)nc32)CC1 [Example 165, methyl 4-{6-[4-({[4-(2-hydroxyethyl)phenyl]carbamoyl}amino)phenyl]-4-(8-oxa-3-azabicyclo[3.2.1]oct-3-yl)-1H-pyrazolo[3,4-d]pyrimidin-1-yl}piperidine-1-carboxylate]	< 1 nM
